Legend:
Assay in all cases: relative viability (nuclei count vs DMSO), 5 days (fraction); higher = more cells survive
Wnt-C59 + Decitabine = compound: CC1=NC=CC(=C1)C2=CC=C(C=C2)CC(=O)NC3=CC=C(C=C3)C4=CN=CC=C4 [Wnt-C59] + Nc1ncn([C@H]2C[C@H](O)[C@@H](CO)O2)c(=O)n1 [Decitabine] (partner 2 µM)
How it was run: (§1)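 Relative viability equals treated-well nuclei counts divided by vehicle-well nuclei counts. Counts came from 4× images of lung cancer cell lines grown in 1536-well plates for 5 days after pin-tool dosing on the day after seeding. Dosing used one drug alone or a fixed anchor-drug dose plus five library-drug doses (not always all listed) in √10 steps, and values are medians of duplicate plates.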

Wnt-C59 + Lapatinib = compound: CC1=NC=CC(=C1)C2=CC=C(C=C2)CC(=O)NC3=CC=C(C=C3)C4=CN=CC=C4 [Wnt-C59] + CS(=O)(=O)CCNCc1ccc(-c2ccc3ncnc(Nc4ccc(OCc5cccc(F)c5)c(Cl)c4)c3c2)o1 [Lapatinib] (partner 2 µM)
How it was run: as §1

Wnt-C59 + AZD7762 = compound: CC1=NC=CC(=C1)C2=CC=C(C=C2)CC(=O)NC3=CC=C(C=C3)C4=CN=CC=C4 [Wnt-C59] + NC(=O)Nc1cc(-c2cccc(F)c2)sc1C(=O)N[C@H]1CCCNC1 [AZD7762] (partner 0.2 µM)
How it was run: as §1

Lapatinib + Navitoclax = compound: CS(=O)(=O)CCNCc1ccc(-c2ccc3ncnc(Nc4ccc(OCc5cccc(F)c5)c(Cl)c4)c3c2)o1 [Lapatinib] + CC1(C)CCC(c2ccc(Cl)cc2)=C(CN2CCN(c3ccc(C(=O)NS(=O)(=O)c4ccc(N[C@H](CCN5CCOCC5)CSc5ccccc5)c(S(=O)(=O)C(F)(F)F)c4)cc3)CC2)C1 [Navitoclax] (partner 0.5 µM)
How it was run: as §1

Row | Cell Line | relative viability (Wnt-C59 + Decitabine; first compound 0.001 µM) | relative viability (Wnt-C59 + Decitabine; first compound 0.01 µM) | relative viability (Wnt-C59 + Decitabine; first compound 0.03162 µM) | relative viability (Wnt-C59 + Decitabine; first compound 0.1 µM) | relative viability (Wnt-C59 + Lapatinib; first compound 0.001 µM) | relative viability (Wnt-C59 + Lapatinib; first compound 0.01 µM) | relative viability (Wnt-C59 + Lapatinib; first compound 0.03162 µM) | relative viability (Wnt-C59 + Lapatinib; first compound 0.1 µM) | relative viability (Wnt-C59 + AZD7762; first compound 0.001 µM) | relative viability (Wnt-C59 + AZD7762; first compound 0.01 µM) | relative viability (Wnt-C59 + AZD7762; first compound 0.03162 µM) | relative viability (Wnt-C59 + AZD7762; first compound 0.1 µM) | relative viability (Lapatinib + Navitoclax; first compound 0.06325 µM) | relative viability (Lapatinib + Navitoclax; first compound 0.2 µM) | relative viability (Lapatinib + Navitoclax; first compound 0.6325 µM) | relative viability (Lapatinib + Navitoclax; first compound 2 µM) | relative viability (Lapatinib + Navitoclax; first compound 0.02 µM)
1 | NCI-H1915 | 0.261 | 0.261 | 0.262 | 0.251 | 0.88 | 0.939 | 1.03 | 0.944 | 0.761 | 0.69 | 0.708 | 0.69 | 0.822 | 0.752 | 0.79 | 0.81 | –
2 | NCI-H1395 | 0.743 | 0.76 | 0.764 | 0.704 | 1.03 | 0.972 | 1.1 | 0.991 | 0.39 | 0.383 | 0.426 | 0.389 | 1.05 | 1.14 | 1.62 | 1.14 | –
3 | CAL-12T | – | – | – | – | 0.614 | – | 0.761 | 0.625 | 0.595 | 0.588 | 0.505 | 0.631 | 1.23 | 1.32 | 1.03 | 0.724 | 1.18
4 | SW 900 | 0.49 | 0.43 | 0.492 | 0.402 | – | – | – | – | 0.602 | 0.615 | 0.555 | 0.562 | – | – | – | – | –
5 | NCI-H2342 | 0.713 | 0.787 | 0.748 | 0.692 | – | – | – | – | 0.525 | 0.498 | 0.495 | 0.457 | – | – | – | – | –
6 | NCI-H1299 | – | – | – | – | 0.984 | 0.975 | 0.982 | 0.988 | – | – | – | – | 1.06 | 1.05 | 1.01 | 1.06 | 1.05
7 | HARA | 0.604 | 0.455 | 0.543 | 0.587 | 0.649 | 0.746 | 0.876 | 0.751 | 0.408 | 0.348 | 0.38 | 1.61 | 1.18 | 1.15 | 1.08 | 0.938 | 1.13
8 | NCI-H2023 | 0.227 | 0.244 | 0.251 | 0.221 | 0.715 | 0.93 | 1.17 | 0.666 | – | – | – | – | 0.885 | 0.894 | 1 | 0.77 | 0.95
9 | SK-MES-1 | 0.386 | 0.403 | 0.366 | 0.355 | 0.543 | 0.5 | 0.467 | 0.448 | – | – | – | – | – | 1.25 | 0.783 | 0.573 | 1.13
10 | LCLC-103H | 0.729 | 0.758 | 0.785 | 0.698 | – | – | – | – | 0.798 | 0.712 | 0.824 | 0.775 | – | – | – | – | –
11 | NCI-H2009 | 0.35 | 0.442 | 0.352 | 0.379 | 0.993 | 1.04 | 0.903 | 0.881 | – | – | – | – | 1.21 | 1.21 | 1.17 | 1.14 | 1.11
12 | Calu-6 | – | – | – | – | 1.07 | 1.06 | 1.08 | 0.951 | – | – | – | – | 0.812 | 0.91 | 0.819 | 0.764 | 0.844
13 | NCI-H441 | 0.232 | 0.226 | 0.246 | 0.166 | – | – | – | – | 1.19 | 1.35 | 1.48 | 0.997 | 0.223 | 0.94 | 0.514 | 0.604 | –
14 | NCI-H661 | 0.542 | 0.516 | 0.576 | 0.606 | 0.418 | 0.613 | 0.558 | 0.577 | – | – | – | – | – | – | – | – | –
15 | A549 | 0.222 | 0.247 | 0.247 | 0.225 | 1.04 | 1.02 | 0.966 | 0.988 | – | – | – | – | 1.13 | 1.22 | 1.21 | 1.21 | 1.12
16 | COR-L23 | 0.489 | 0.47 | 0.493 | 0.525 | 1.04 | 0.851 | 1.05 | 0.797 | – | – | – | – | 0.938 | 1.09 | 0.887 | 0.854 | 0.943
17 | NCI-H1703 | – | – | – | – | 1.16 | 1.28 | 1.3 | 1.12 | 0.158 | 0.107 | 0.135 | 0.129 | 0.943 | 1.03 | 1.33 | 0.996 | 0.908
18 | NCI-H2228 | – | – | – | – | 1.3 | 1.07 | 0.801 | 0.874 | – | – | – | – | 0.807 | 0.809 | 1.28 | 0.912 | 0.838
19 | NCI-H520 | 0.48 | 0.532 | 0.537 | 0.504 | 0.809 | 0.894 | 0.878 | 0.827 | – | – | – | – | 1.06 | 1.08 | 1.25 | 0.972 | 0.951
20 | NCI-H1563 | – | – | – | – | 0.873 | 1.04 | 0.896 | 0.882 | – | – | – | – | – | – | – | – | –
21 | SK-LU-1 | 0.657 | 0.675 | 0.694 | 0.657 | 0.798 | 0.789 | 0.915 | 0.823 | – | – | – | – | 0.831 | 0.747 | 0.876 | 1.29 | –
22 | IA-LM | – | – | – | – | 0.876 | 0.768 | 0.47 | 0.674 | – | – | – | – | 0.794 | 0.817 | 0.728 | 0.713 | 0.769
23 | EBC-1 | – | – | – | – | 0.203 | 0.214 | 0.18 | 0.208 | – | – | – | – | 0.361 | 0.457 | 0.337 | 0.265 | 0.459
24 | NCI-H1648 | 0.581 | 0.405 | 0.496 | 0.561 | – | – | – | – | 0.565 | 0.797 | 0.53 | 0.622 | – | – | – | – | –

Source: the supplement of paper PMC10307832
